Data as given in patent US10513511B2, “Aqueous suspension formulation comprising 4-(4-(4-(((3R,5R)-5-((1H-1,2,4-triazol-1-yl)methyl)-5-(2,4-difluoro-phenyl)tetrahydrofuran-3-yl)methoxy)-3-methylphenyl) or a pharmaceutically acceptable salt thereof” (PULMOCIDE LIMITED, priority 2015, dated 2019).

Tested on: Aspergillus fumigatus (azole resistant strain: TR34/L98H)
Experiment: Aspergillus fumigatus infection of human alveoli bilayers (transwells), azole resistant strain
Format: cell-based
Settings: for MIC50 / MIC90: Aspergillus fumigatus, 24 h; for MIC50: read-out: MIC50, invasion into the lower chamber in human alveoli bilayers; for MIC90: read-out: MIC90, invasion into the lower chamber in human alveoli bilayers
Method: In vitro models of human alveoli, consisting of a bilayer of human alveolar epithelial cells and endothelial cells, were prepared as previously described (Hope et al., 2007). This system allows administration of a test compound to the upper (“air” space) and/or lower (“systemic” space) compartments. This flexibility has been exploited to explore the effects of combination treatment by dosing Compound (I) to the upper chamber and posaconazole or other anti-fungal agents to the lower chamber. Primary human pulmonary artery endothelial cells (HPAEC) were harvested and diluted to 10^6 cells/mL in EGM-2 media (Lonza, Basel, Switzerland). Transwells were inverted and the cell suspension (100 μL/well) applied to the base of each transwell. The inverted transwells were incubated at RT within a flow hood for 2 hr after which they were turned upright. EGM-2 media was added to the lower (700 μL/well) and upper (100 μL/well) compartments and the transwells were incubated for 48 hr (37° C., 5% CO2). The EGM-2 media in the lower compartment was then replaced with fresh EGM-2 media. A549 cells were harvested and diluted to 5×10^5 cells/mL in 10% EBM, then added to the upper compartment (100 μL/well) of all transwells and the plates incubated for 72 hr (37° C., 5% CO2). Conidia of itraconazole sensitive Aspergillus fumigatus s (NCPF2010) and itraconazole resistant (TR34-L98H) strains were cultured separately in Sabouraud dextrose agar for 3 days. A stock conidia suspension of either strain was prepared from a Sabouraud dextrose agar culture by washing with PBS-tween (10 mL; PBS containing 0.05% Tween-20, 100 U/mL Penicillin and 100 U/mL Streptomycin). The conidia count was assessed using a Neubauer haemocytometer and adjusted to 10^6 conidia/mL with PBS. A working stock of conidia was prepared in EBM (10^5 conidia/mL) immediately prior to use.
Test and reference compounds (or neat DMSO as the vehicle) were added to the appropriate wells of 24-well plates (3 μL/well containing 600 μL of 2% FBS EBM) for lower compartment treatment and to 96-well plates (1 μL/well containing 200 μL of 2% FBS EBM) for the treatment of the upper compartment, to provide a final DMSO concentration of 0.5%. The media in the upper compartment was aspirated and that containing the appropriate test and reference compounds, or vehicle, were added (100 μL/well). Transwells were then transferred into the 24-well plate containing the test and reference compounds or DMSO vehicle. After incubation for 1 hr (35° C., 5% CO2) the conidia suspension (10 μL/well) was added to the upper compartment of each transwell. Plates were then incubated for 24 hr (35° C., 5% CO2). Supernatants from each compartment (5 μL/compartment) were collected and stored (−20° C.). Media was replaced daily after collection of the supernatants and all wells were treated with test and reference compounds or with DMSO, as described above, for 3 days. Samples continued to be collected until fungal growth was visible by eye in all transwells. The levels of GM in the supernatant in lower compartment were then measured by ELISA (BioRad, CA, USA) as an index of Aspergillus fumigatus invasion.

[1] = Day 1, TR34-L98H, Compound 0.3 μg/mL upper chamber, posaconazole 0.1 μg/mL lower chamber, combination of both
[2] = Day 2, TR34-L98H, Compound 0.3 μg/mL upper chamber, posaconazole 0.1 μg/mL lower chamber, combination of both
[3] = Day 3, TR34-L98H, Compound 0.3 μg/mL upper chamber, posaconazole 0.1 μg/mL lower chamber, combination of both

SMILES: Cc1cc(N2CCN(c3ccc(C(=O)N[C@H]4CCCC[C@@H]4O)cc3)CC2)ccc1OC[C@@H]1CO[C@@](Cn2cncn2)(c2ccc(F)cc2F)C1 [Compound (Ia), 4-(4-(4-(((3R,5R)-5-((1H-1,2,4-triazol-1-yl)methyl)-5-(2,4-difluorophenyl)tetrahydrofuran-3-yl)methoxy)-3-methylphenyl)piperazin-1-yl)-N-((1S,2S)-2-hydroxycyclohexyl) benzamide]
- MIC50: 0.261 µM
- MIC90: 0.417 µM
- maximum inhibition of GM levels in the bottom chamber (TR34/L98H, administration to the apical chamber, 1 day post infection): exceeding 90%

SMILES: CC[C@@H]([C@H](C)O)n1ncn(-c2ccc(N3CCN(c4ccc(OC[C@@H]5CO[C@@](Cn6cncn6)(c6ccc(F)cc6F)C5)cc4)CC3)cc2)c1=O [Posaconazole, reference compound]
- MIC50: 0.315 µM
- MIC90: 0.793 µM
- GM Levels in the Lower Chamber, OD value (Day 0, TR34-L98H, Compound 0.3 μg/mL upper chamber, posaconazole 0.1 μg/mL lower chamber, combination of both): 0 OD
- GM Levels in the Lower Chamber, % inhibition vs. vehicle control [1]: 98%
- GM Levels in the Lower Chamber, OD value [1]: 0.016 OD
- GM Levels in the Lower Chamber, % inhibition vs. vehicle control [2]: 35%
- GM Levels in the Lower Chamber, OD value [2]: 0.73 OD
- GM Levels in the Lower Chamber, % inhibition vs. vehicle control [3]: −10%
- GM Levels in the Lower Chamber, OD value [3]: 1.16 OD
- DFB50: Days taken to reach a fungal burden of 50% of control (TR34-L98H, Compound 0.3 μg/mL upper chamber, posaconazole 0.1 μg/mL lower chamber, combination of both): 1.94 days
